Test results published in patent US20030170643A1, “Regulation of apoB treatment and drug screening for cardiovascular and metabolic disorders or syndromes” (priority 1999, published 2003).

Legend:
125I-LDL = assay: Degradation of exogenously added 125I-LDL (lysosomal inhibition control); type: cell-based, rat
Experimental: (§1) To determine whether the proteasome mediated Ω-3 fatty acid-induced apoB degradation, rat hepatoma cells were incubated at 37° C. for 4 hr in [^35S]methionine-containing medium supplemented with either BSA or EPA/BSA complexes in the absence or presence of the proteasome inhibitor, lactacystin ([…]; purchased from the laboratory of Dr. E. J. Corey, Harvard University). Samples of cell lysates and conditioned media were subjected to immunoprecipitation analysis with anti-apoB antiserum, followed by SDS-PAGE and fluorography. To determine whether Ω-3 fatty acids targeted apoB to lysosomal degradation, a similar experiment was performed substituting ammonium chloride (40 mM) for lactacystin.
(§2) More evidence against the involvement of re-uptake in Ω-3 fatty acid-induced degradation of apoB is based on the knowledge that lipoproteins captured by either LDL receptors (Brown, M. S., and Goldstein, J. L. (1986) Science 232(4746), 34-47) or heparan sulfate proteoglycans (Williams, K. J. et al. (1992) J Biol Chem 267(19), 13284-92; and Fuki, I. V. et al. (2000) J Biol Chem 275(33), 25742-50) are directed to lysosomes. Thus, rat primary hepatocytes cells were treated with either OA or DHA in the absence or presence of ammonium chloride, a lysosomal inhibitor. […]

rat hepatoma cells [1] = assay: Cell toxicity by TCA-PTA precipitation analysis; type: cell-based; settings: 40 mM
Experimental: After electrophoresis, the gels were stained, fixed, soaked in Enhance fluor solution, and dried following protocols supplied by the manufacturer. Dried gels were then exposed to X-ray film at −70° C. and signals on the resulting fluorograms were typically quantified by densitometry or phosphorimaging. Using the total radioactivity applied to each lane of the gel and the relative signal intensity of each band in that lane, the radioactivity associated with each apoprotein species was calculated. In some cases, gel bands were excised and the incorporated radioactivity measured directly by scintillation counting. As a control, the incorporation of [^35S]methionine into total cellular and secreted proteins was measured by TCA-PTA precipitation, as described in Wang, H., Chen, X., and Fisher, E. A. (1993) J Clin Invest 91(4), 1380-9.
as §1, with “To determine whether Ω-3 fatty acids targeted apoB to lysosomal degradation, a similar experiment was performed substituting ammonium chloride (40 mM) for lactacystin.” left out

rat primary hepatocytes [2] = assay: Lysosomal inhibition and DHA-induced degradation of newly synthesized apoB; type: cell-based; settings: with lysosomal inhibitor
Experimental: as §1, §2

rat hepatoma cells [3] = assay: Pulse-chase recovery of [35S]-apoB100 (apoB100 degradation) in rat hepatoma cells; type: cell-based; settings: co-treatment with DHA, FIG. 13A and 13B
Experimental: (§3) FIG. 13 illustrates that either an iron chelator (DFX) or lipid antioxidants block DHA-stimulated apoB degradation and reactive oxygen species (ROS) production. Rat hepatoma cells were plated in culture wells and pre-incubated in media containing either DHA or DHA with one of the indicated compounds. Radiolabeled methionine/cysteine was added to the culture media for 15 minutes, after which time, the culture media were replaced by fresh media identical in composition except that radiolabeled methionine/cysteine were replaced by unlabeled methionone/cysteine. The recovery of labeled apoB100 ([^35S]-apoB100) from the media and cell lysate was determined at the indicated time points (with time 0 being the point when the fresh media were applied to the cells) by immunoprecipitating apoB species with a rabbit polyclonal antibody to rat apoB, resuspending the immunoprecipitates, combining aliquots from cell lysate and media samples from each well, resolving the protein contents of the combined immunoprecipitates by SDS-polyacrylamide gel electrophoresis (SDS-PAGE), and exposing the resultant gels to X-ray film in order to visualize the labeled apoB bands. In panel A are shown representative signals for radiolabeled apoB100 in each of the treatment conditions. […] For each treatment, there were at least 2 wells/treatment for each time point and the entire experiment repeated. The signal intensities of the apoB100 bands were quantified by densitometry and the mean relative recoveries (the % of the 15 minute, or initial, value still remaining at 120 minutes) ±SEM are shown in panel B. Note that the visual impressions observable in panel A are confirmed by the quantitative analysis; i.e., there is a substantial increase in labeled apoB100 recovery with any of the co-treatments. In panel C, the ROS content of the cell lysates at the end of the experiment was measured by the standard TBARS assay (Stocks et al., 1974, Clin Sci Mol Med 47,215-222). Note that compared to control (BSA), DHA induced a large increase in TBARS, as expected because of its high content on unsaturated bonds.
FIG. 14 illustrates that DHA, but not saturated MA, induces apoB100 degradation in rat hepatoma cells. An experiment similar to the one described in FIG. 13 was performed, with the following changes: A) The immunoprecipitates from cell lysate and media samples were not combined, but separately analyzed. B) In addition to the 15 and 120 minute time points, apoB recovery was determined at 30 minutes. C) In addition to DHA, the effects of the fatty acid myristic (MA) were also tested because it has no unsaturated bonds and should not give rise to ROS.
FIG. 15 illustrates that AA stimulates apoB100 degradation and increases ROS. […] Note in the upper panel that the combined recovery (from two separate wells/time point) of radiolabeled apoB100 decreased from 15 to 120 minutes, indicating significant apoB100 degradation had occurred in the presence of AA. […] In addition to being a source of ROS, AA can also be converted by cyclooxygenase (COX) to bioactive prostaglandin compounds. We therefore repeated the experiment with AA but with co-treatment by the COX inhibitor aspirin.
To further explore the underlying mechanisms, rat hepatoma cells or primary hepatocytes were incubated with the Ω-3 fatty acid DHA complexed to BSA, while blocking candidate cellular mediators. […] There was, however, strong evidence against a role for calcium. Chelation of intracellular Ca^++ with BAPTA-AM, pharmacologic blockage of Ca^++ channels, depletion of the ER-calcium pool, and increasing Ca++ influx with an ionophore each had no effect. Because EGTA also chelates Fe^+++, and DHA is subject to Fe^+++-dependent peroxidation, the role of this lipid modification was examined. As shown in FIG. 13A and 13B, Desferroxamine (DFX), a chelator of Fe^+++, the antioxidant vitamin E (Vit E), and the synthetic antioxidant BHT, each inhibited DHA-stimulated apoB100 degradation by ˜60%.

rat hepatoma cells [4] = assay: TBARS assay of ROS in cell lysates of rat hepatoma cells; type: cell-based; settings: co-treatment with DHA, FIG. 13C
Experimental: as §3, with “bonds. […] FIG. 15 illustrates that AA stimulates apoB100 degradation and increases ROS. […] Note in the upper panel that the combined recovery (from two separate wells/time point) of radiolabeled apoB100 decreased from 15 to 120 minutes, indicating significant apoB100 degradation had occurred in the presence of AA. […] In addition to being a source of ROS, AA can also be converted by cyclooxygenase (COX) to bioactive prostaglandin compounds. We therefore repeated the experiment with AA but with co-treatment by the COX inhibitor aspirin.” for “bonds.”

rat primary hepatocytes [5] = assay: Basal apoB100 degradation (pulse-chase recovery) in rat primary hepatocytes; type: cell-based; settings: FIG. 16A
rat primary hepatocytes [6] = assay: TBARS assay of ROS in rat primary hepatocytes; type: cell-based; settings: FIG. 16B

Compound | inhibition of the degradation of exogenously added 125I-LDL (125I-LDL; ammonium chloride 40 mM) [%] | degradation of 125I-LDL (125I-LDL; rat primary hepatocytes) | cell toxicity assessed by TCA-PTA precipitation analysis (rat hepatoma cells [1]) | DHA-induced degradation of newly synthesized apoB (rat primary hepatocytes [2]) | inhibition of DHA-stimulated apoB100 degradation (rat hepatoma cells [3]) [%] | DHA-increased ROS, TBARS assay, with co-treatment (rat hepatoma cells [4]) | basal level of apoB degradation (rat primary hepatocytes [5]) | ROS level (TBARS) (rat primary hepatocytes [6])
Cl.N [ammonium chloride] | > 80 | decreased | no evidence of cell toxicity | no decrease | – | – | – | –
vitamin E [Vit E] | – | – | – | – | ~60 | reduced | essentially reversed | reduced
